Patent publication US20170354670A1, “PRODUCT COMPRISING GLUCOSAMINE FOR EXTERNAL APPLICATION” (Vital Medicine, LLC, priority 2016, published 2017)

System: foot complaints (tired, achy, sore)
Assay: Foot bath study of foot pain (100 mm visual analogue scale) versus sucrose sham
Type: in vivo, human
Text: Subjects: Normal healthy adults aged 40-75 with daily reported foot complaints (tired, achy, sore) that are not currently taking prescription or over the counter products for symptom relief. An attempt is made to recruit equal numbers of male and female participants. Sample Size: 40 subjects; 20 per group Treatment groups: Soothing foot bath topical fluid application apparatus (Glucosamine KCl), group A; Sham: Sucrose foot bath topical fluid application apparatus, group B. Methods: Recruitment—Questionnaire evaluating health status and foot complaints; including visual analogue scale evaluation of current pain state. Baseline—Questionnaire evaluating health status and foot complaints; including visual analogue scale evaluation of current pain state. Treatment—Subjects are randomly assigned to one of two treatment groups and asked to submerge their right foot in a plastic box that contains 3 liters of room temperature tap water and 2 liters of boiling water plus one packet (50 grams) of the labeled “treatment pack” and stirred until in solution. Label is removed from pack and placed on chart. Foot remains submerged and stopwatch set for 1 hour. At the end of 1 hour, subject foot is dried and subject is asked to mark on the line (100 mm) the current state of their foot pain upon standing. […]

N[C@H]1C(O)OC(CO)[C@@H](O)[C@@H]1O (stereo partly drawn) [glucosamine, (3R,4R,5S)-3-Amino-6-(hydroxymethyl)oxane-2,4,5-triol]
pain relief compared with sucrose sham, duration (72 hours after treatment, single 1 hour foot bath, 50 grams in 5 liters water, many subjects): greater pain relief
pain relief compared with sucrose sham (group B) (healthy adults aged 40-75 with daily foot complaints, right foot submerged 1 hour in 5 liters water with 50 grams treatment pack, visual analogue scale): sufficiently better pain relief
